# Data as given in patent publication US7754754B2, “Pharmaceutical formulations containing substituted 2 heteroarylaminoacetic acid compounds” (Gruenenthal GmbH, priority 2003, dated 2010).
# How the values were obtained:
# [1] = molecular target: T1, glycineB binding site of the NMDA receptor channel (Rattus norvegicus, UniProt P35439); assay: Receptor binding study, displacement of (3H)-MDL 105.519 from rat brain membrane homogenates; conditions: 10 μM of the compound under test, rat cortex and hippocampus membrane homogenate; for inhibition at 10 µM: read-out: % inhibition (percentage fraction of the bound radioactive ligand displaced from its specific binding)
# T1 construct: the cortex and hippocampus are dissected out of freshly harvested rat brains and homogenised; from tissue; host or cells: rat (Wistar, male) brain cortex and hippocampus membrane homogenate
# Experimental: (a) Receptor Binding Study (glycineB Binding Site of the NMDA Receptor Channel)
# The affinity of the compounds of the above general formula I used according to the invention for the glycine binding site of the NMDA receptor channel is determined using brain membrane homogenates (homogenate of cortex and hippocampus area from the brain of male rats, Wistar strain), as for example described in B. M. Baron, B. W. Siegel, B. L. Harrison, R. S. Gross, C. Hawes and P. Towers, Journal of Pharmacology and Experimental Therapeutics, (1996), vol. 279, page 62. The corresponding literature description is hereby introduced as a reference and is deemed to be part of the disclosure.
# To this end, the cortex and hippocampus are dissected out of freshly harvested rat brains and homogenised with ice cooling in 5 mmol/l of TRIS-acetate buffer, […] of sucrose, pH 7.4 (10 ml/g fresh weight) using a Potter homogeniser (Braun/Melsungen, 10 piston strokes at 500 rpm) and then centrifuged for 10 minutes at 1,000 g and 4° C. The first supernatant is collected and the sediment again homogenised with ice cooling with 5 mmol/l of tris-acetate buffer, 0.32 mol/l of sucrose, pH 7.4 (5 ml/g of original fresh weight) with the Potter homogeniser (10 piston strokes at 500 rpm) and centrifuged for 10 minutes at 1,000 g and 4° C. The resultant supernatant is combined with the supernatant from the first centrifugation and centrifuged at 17,000 g for 20 minutes at 4° C. The supernatant after this centrifugation is discarded and the membrane sediment resuspended with 5 mmol/l of TRIS-acetate buffer, pH 8.0 (20 ml/g of original fresh weight) and homogenised with 10 piston strokes at 500 rpm.
# The membrane homogenate is then incubated for 1 hour at 4° C. and centrifuged for 30 minutes at 50,000 g and 4° C. The supernatant is discarded and the centrifuge tubes containing the membrane sediment are sealed with Parafilm and frozen for 24 hours at −20° C. On the following day, the membrane sediment is thawed and resuspended with ice-cold 5 mmol/I TRIS-acetate buffer, 0.1% saponin (wt./vol.), pH 7.0 (10 ml/g of original fresh weight) and homogenised with 10 piston strokes at 500 rpm and then centrifuged for 20 minutes at 50,000 g and 4° C. The resultant supernatant is discarded and the sediment resuspended in a small volume with 5 mmol/l of TRIS-acetate buffer, pH 7.0 (approx. 2 ml/g of original fresh weight) and again homogenised with 10 piston strokes at 500 rpm. After determination of the protein content, the membrane homogenate is adjusted with 5 mmol/l TRIS-acetate buffer, pH 7.0, to a protein concentration of 10 mg of protein/ml and frozen in aliquots until used for testing.
# The receptor binding test is performed by thawing aliquots, diluting them 1:10 with 5 mmol/l TRIS-acetate buffer, pH 7.0, homogenising them with ice-cooling with 10 piston strokes at 500 rpm with the Potter homogeniser (10 piston strokes at 500 rpm) and centrifuging them for 60 minutes at 55,000 g at 4° C. The supernatant is decanted and the membrane sediment adjusted with ice-cold 50 mmol/l TRIS-acetate buffer, pH 7.0, to a protein concentration of 1 mg/ml and again homogenised with 10 piston strokes at 500 rpm and kept in suspension in an ice bath with stirring on a magnetic stirrer. This membrane homogenate is used in the receptor binding test in a quantity of 100 μl per 1 ml batch (0.1 mg of protein/ml in the final batch). In the binding test, the buffer used is 50 mmol/l TRIS-acetate buffer, pH 7.0, and the radioactive ligand […] of (3H)-MDL 105.519 (B. M. Baron et al. 1996). The level of nonspecific binding is determined in the presence of 1 mmol/l of glycine.
# In further batches, the compounds used according to the invention are added in concentration series and the displacement of the radioactive ligand from its specific binding at the glycine-binding site of the NMDA receptor channel is determined. […]
# male albino mice (NMRI) = assay: Formaldehyde test (mouse), second (late) phase; assay type: in vivo; conditions: formaldehyde-induced nociception
# Experimental: (b) Formaldehyde Test (Mouse)
# The investigations for determining the antinociceptive action of the substituted 2-heteroarylaminoacetic acid compounds of the above general formula I used according to the invention are carried out by the formaldehyde test on male albino mice (NMRI, 25-35 g, Iffa, Credo, Belgium).
# In the formaldehyde test, a distinction is drawn between the first (early) phase (0-15 min after formaldehyde injection) and the second (late) phase (15-60 min after formaldehyde injection) (D. Dubuisson et al., Pain, vol. 4, pp. 161-174 (1977)). The early phase, being a direct response to the formaldehyde injection, is considered to be a model of acute pain, while the late phase is considered to be a model of persistent (chronic) pain (T. J. Coderre et al., Pain, vol. 52, pp. 259-285 (1993)). The corresponding literature descriptions are hereby introduced as a reference and are deemed to be part of the disclosure.
# The substituted 2-heteroarylaminoacetic acid compounds of the above general formula I used according to the invention are investigated in the second phase of the formaldehyde test in order to obtain information regarding the action of the substances in chronic/inflammatory pain.
# A nociceptive reaction is induced in the freely mobile test animals by a single, subcutaneous formaldehyde injection (20 μl, 1% aqueous solution) into the dorsal side of the rear hind paw, the reaction being expressed by distinct licking and biting of the affected paw.
# For the investigation period in the second (late) phase of the formaldehyde test, nociceptive behaviour is continuously recorded by observing the animals. […] After injection of the substances which are antinociceptively active in the formaldehyde test, the described behaviours of the animals are reduced or even eliminated. In the same manner as in the substance tests, in which the animals receive an injection of test substance before the formaldehyde, the control animals are injected with vehicle, i.e. solvent (for example 0.9% NaCl solution) before administration of the formaldehyde. The behaviour the animals after administration of the substance (n=10 per substance dose) is compared with a control group (n=10). On the basis of the quantification of the pain behaviour, the action of the substance in the formaldehyde test is determined as a percentage change of the control. ED50 calculations are carried out by regression analysis. The time of administration before the formaldehyde injection was selected as a function of the mode of administration of the compounds used according to the invention (intraperitoneal: 15 min; intravenous: 5 min).
Compound,inhibition at 10 µM [1],Inhibition (%) at dose (male albino mice (NMRI); at 10 mg/kg),Inhibition (%) at dose (male albino mice (NMRI); at 46.4 mg/kg),% inhibition (percentage fraction of the bound radioactive ligand displaced from its specific binding) [1]
"O=C([O-])C(Nc1cc(Cl)cc(Cl)c1)c1cc2ccccc2o1.[Na+] (centres unmarked) [Example 6, (Benzofuran-2-yl)-(3,5-dichlorophenylamino)acetic acid, sodium salt]",97%,42% (at 10 mg/kg),–,–
"O=C(O)C(Nc1cc(Cl)cc(Cl)c1)c1cc2ccccc2s1 (centres unmarked) [Example 2, (Benzo[b]thiophen-2-yl)-(3,5-dichlorophenylamino)acetic acid]",85%,–,55% (at 46.4 mg/kg),–
"O=C([O-])C(Nc1cc(Cl)cc(Cl)c1)c1csc2ccccc12.[Na+] (centres unmarked) [Example 8, (Benzo[b]thiophen-3-yl)-(3,5-dichlorophenylamino)acetic acid, sodium salt]",–,–,–,24%
"(Benzo[b]furan-2-yl)-(3,5-bis(trifluoromethyl)phenyl)acetic acid, sodium salt [Example 10]",–,–,60% (at 46.4 mg/kg),29%
"(Benzo[b]thiophen-2-yl)-(3,5-bis(trifluoromethyl)phenyl)acetic acid, sodium salt [Example 9]",–,–,–,13%
"O=C(O)C(Nc1cc(Cl)cc(Cl)c1)c1csc2ccccc12 (centres unmarked) [Example 3, (Benzo[b]thiophen-3-yl)-(3,5-dichlorophenylamino)acetic acid]",15%,–,–,–
"O=C([O-])C(Nc1cc(Cl)cc(Cl)c1)c1cc2ccccc2s1.[Na+] (centres unmarked) [Example 7, (Benzo[b]thiophen-2-yl)-(3,5-dichlorophenylamino)acetic acid, sodium salt]",–,–,11% (at 46.4 mg/kg),85%
